The record followed here is patent publication US20250171495A1, “MUTLI-TARGETED SERINE PROTEASE INHIBITORS FOR TREATMENT OF CANCER AND VIRAL INFECTION” (Washington University, priority 2023, published 2025).

One may read the EC50 as the concentration that produces a half-maximal response.

SMILES strings stand for the structures. Numbered stars: 1 amine (or outer) side, 2 acyl side, 3 side chain; on linkers, the order of the positions; unused ones are H or OH. Square brackets hold non-standard residues; d marks the D form. Peptide text beside a SMILES is read from it. X1 = N=C(N)NCCC[C@H](N[*:1])C(=O)c1nc2ccc(C(=O)[*:2])cc2s1

This assay concerns VSV-SARS-CoV-2. In words: microbe, parasite or virus in culture. The note with it: Vesicular stomatitis virus, Calu-3, in Homo sapiens, read-out: VSV SARS CoV-2 Cell Entry EC50 (nM).
Turning to `N=C(N)NCCC[C@H](NC(=O)[C@H](Cc1ccccc1)NC(=O)[C@H](N)Cc1c[nH]c2ccccc12)C(=O)c1nc2ccccc2s1` [PK-1-18A1, N-[(S)-1-[(1,3-benzothiazol-2-yl)carbonyl]-4-guanidinobutyl](S)-2-[(R)-2-amino-3-(3-indolyl)propionylamino]-3-phenylpropionamide], the EC50 came to 356 nM.

In the case of `CC(=O)N[C@@H](CO)C(=O)N[C@@H](CCCCN)C(=O)N[C@@H](Cc1ccccc1)C(=O)N[C@@H](CCCNC(=N)N)C(=O)c1nccs1` [ZFH6095, N-[(S)-1-[N-(S)-4-guanidino-1-[(1,3-thiazol-2-yl)carbonyl]butylcarbamoyl]-2-phenylethyl](S)-2-[(S)-2-acetylamino-3-hydroxypropionylamino]-6-aminohexanamide], the EC50 turned out to be 1160 nM.

Regarding `CCC(C)[C@H](NC(C)=O)C(=O)N[C@@H](CCSC)C(=O)N[C@@H](Cc1ccccc1)C(=O)N[C@H](CCCNC(=N)N)C(=O)c1nc2ccccc2s1` (stereo partly drawn) [MM4027-1, N-[(S)-3-(methylthio)-1-[N-(S)-1-[N-(R)-1-[(1,3-benzothiazol-2-yl)carbonyl]-4-guanidinobutylcarbamoyl]-2-phenylethylcarbamoyl]propyl](2S)-2-acetylamino-3-methylvaleramide], the EC50 amounted to 92.3 nM.

Take `CC(=O)N[C@@H](CCCCN)C(=O)N[C@@H](CCC(N)=O)C(=O)N[C@@H](Cc1ccccc1)C(=O)N[C@@H](CCCNC(=N)N)C(=O)c1nccs1` [ZFH6101, N-[(S)-1-[N-(S)-4-guanidino-1-[(1,3-thiazol-2-yl)carbonyl]butylcarbamoyl]-2-phenylethyl](S)-2-[(S)-1-acetylamino-5-aminopentylcarbonylamino] glutaramide]: the EC50 worked out at 262 nM.

In the case of `CCC(C)[C@H](NC(C)=O)C(=O)N[C@H](Cc1cc2ccccc2[nH]1)C(=O)N[C@@H](Cc1ccccc1)C(=O)N[C@@H](CCCNC(=N)N)C(=O)c1nc2ccccc2s1` (stereo partly drawn) [MM4038, N-[(R)-2-(2-indolyl)-1-[N-(S)-1-[N-(S)-1-[(1,3-benzothiazol-2-yl)carbonyl]-4-guanidinobutylcarbamoyl]-2-phenylethylcarbamoy1]ethyl](2S)-2-acetylamino-3-methylvaleramide], the EC50 turned out to be 226 nM.

In the case of `CC(=O)N[C@@H](Cc1ccccc1)C(=O)N[C@@H](CC(C)C)C(=O)N[C@@H](Cc1ccccc1)C(=O)N[C@@H](CCCNC(=N)N)C(=O)c1nc2ccccc2s1` [ZFH7063, N-[(S)-1-[N-(S)-1-[(1,3-benzothiazol-2-yl)carbonyl]-4-guanidinobutylcarbamoyl]-2-phenylethyl](S)-2-[(S)-2-acetylamino-3-phenylpropionylamino]-4-methylvaleramide], the half-maximal effective concentration (EC50) was determined as 101 nM.

For the molecule `CC(=O)N[C@@H](CO)C(=O)N[C@@H](CCCCN)C(=O)N[C@@H](CC(C)C)C(=O)N[C@@H](CCCNC(=N)N)C(=O)c1nc2ccc(C(=O)N[C@H](C(N)=O)C(C)C)cc2s1` [ZFH7116, N-[(S)-1-carbamoyl-2-methylpropyl]-2-[(S)-2-[(S)-2-[(S)-1-[(S)-2-acetylamino-3-hydroxypropionylamino]-5-aminopentylcarbonyl-amino]-4-methylvalerylamino]-5-guanidinovaleryl]-1,3-benzothiazole-6-carboxamide] (Ac-SKL[X1]V-NH2), the EC50 amounted to 489 nM.

As to `CC(=O)N[C@H](Cc1c[nH]c2ccccc12)C(=O)N[C@@H](Cc1ccccc1)C(=O)N[C@@H](CCCNC(=N)N)C(=O)c1nc2ccccc2s1` [PK-1-89A1, N-[(S)-1-[(1,3-benzothiazol-2-yl)carbonyl]-4-guanidinobutyl](S)-2-[(R)-2-acetylamino-3-(3-indolyl)propionylamino]-3-phenylpropionamide], the EC50 was 140 nM.

Consider `CC(=O)N[C@H]1Cc2ccc(cc2)Oc2cccc(c2)C[C@@H](C(=O)N[C@@H](CCCNC(=N)N)C(=O)c2nc3ccccc3s2)NC(=O)[C@H](CC(C)C)NC1=O` [VD5064B, N-[(S)-1-[(1,3-benzothiazol-2-yl)carbonyl]-4-guanidinobutyl]-(9S,12S,15S)-15-acetylamino-12-isobutyl-11,14-dioxo-2-oxa-10,13-diazatricyclo[15.2.2.1^3,^7]docosa-1(19),3,5,7(22),17,20-hexaene-9-carboxamide], for which the EC50 came out at 8370 nM.

In the case of `CCC(C)[C@H](NC(C)=O)C(=O)N[C@@H](CCC(N)=O)C(=O)N[C@H](C(=O)N[C@@H](CCCNC(=N)N)C(=O)c1nc2ccccc2s1)C(C)O` (stereo partly drawn) [MM3186, N-[(1S)-2-hydroxy-1-[N-(S)-1-[(1,3-benzothiazol-2-yl)carbonyl]-4-guanidinobutylcarbamoyl]propyl](S)-2-[(2S)-2-acetylamino-3-methylvalerylamino]glutaramide], the EC50 came to 18.5 nM.

For `CC(=O)NCC(=O)N[C@@H](CCC(N)=O)C(=O)N[C@@H](Cc1ccccc1)C(=O)N[C@@H](CCCNC(=N)N)C(=O)c1nc2ccccc2s1` [MM3122, N-[(S)-1-[N-(S)-1-[(1,3-benzothiazol-2-yl)carbonyl]-4-guanidinobutylcarbamoyl]-2-phenylethyl](S)-2-[(acetylaminomethyl)carbonylamino]glutaramide], the concentration giving a half-maximal response (EC50) was 0.43 nM.

For `CCC(C)[C@H](NC(C)=O)C(=O)N[C@@H](CCC(N)=O)C(=O)N[C@@H](CO)C(=O)N[C@@H](CCCNC(=N)N)C(=O)c1nc2ccccc2s1` (stereo partly drawn) [MM3177, N-[(S)-2-hydroxy-1-[N-(S)-1-[(1,3-benzothiazol-2-yl)carbonyl]-4-guanidinobutylcarbamoyl]ethyl](S)-2-[(2S)-2-acetylamino-3-methylvalerylamino]glutaramide], the EC50 is 36 nM.

Take `CC(=O)N[C@@H](Cc1c[nH]c2ccccc12)C(=O)N[C@@H](Cc1ccccc1)C(=O)N[C@@H](CCCNC(=N)N)C(=O)c1nc2ccc(C(=O)O)cc2s1` [PK-1-103, 2-[(S)-2-[(S)-2-[(S)-2-acetylamino-3-(3-indolyl)propionylamino]-3-phenylpropionylamino]-5-guanidinovaleryl]-1,3-benzothiazole-6-carboxylic acid]: the concentration for a half-maximal effect (EC50) amounted to 116 nM.

`CCC(C)[C@H](NC(C)=O)C(=O)N[C@@H](CCC(N)=O)C(=O)N[C@H](C(=O)N[C@H](CCCNC(=N)N)C(=O)c1nc2ccccc2s1)C(C)C` (stereo partly drawn) [MM3180-1, N-[(S)-2-methyl-1-[N-(R)-1-[(1,3-benzothiazol-2-yl)carbonyl]-4-guanidinobutylcarbamoyl]propyl](S)-2-[(2S)-2-acetylamino-3-methylvalerylamino]glutaramide]: the EC50 amounted to 5.3 nM.

On to `CC(=O)N[C@@H](Cc1c[nH]c2ccccc12)C(=O)N[C@@H](CC(C)C)C(=O)N[C@@H](CCCNC(=N)N)C(=O)c1nc2ccc(C(=O)O)cc2s1` [PK-1-105, 2-[(S)-2-[(S)-2-[(S)-2-acetylamino-3-(3-indolyl)propionylamino]-4-methylvalerylamino]-5-guanidinovaleryl]-1,3-benzothiazole-6-carboxylic acid], for which the EC50 was found to be 721 nM.

For `CC(=O)N1CCC[C@H]1C(=O)N[C@@H](CCC(N)=O)C(=O)N[C@@H](Cc1ccccc1)C(=O)N[C@@H](CCCNC(=N)N)C(=O)c1nc2ccccc2s1` [MM3123, N-[(S)-1-[N-(S)-1-[(1,3-benzothiazol-2-yl)carbonyl]-4-guanidinobutylcarbamoyl]-2-phenylethyl](S)-2-[(S)-1-acetyl-2-pyrrolidinylcarbonylamino] glutaramide], the EC50 was 0.86 nM.

In the case of `CC(=O)N[C@@H](CO)C(=O)N[C@@H](CCCCN)C(=O)N[C@@H](CC(C)C)C(=O)N[C@@H](CCCNC(=N)N)C(=O)c1nc2ccccc2s1` [ZFH7053, N-[(S)-3-methyl-1-[N-(S)-1-[(1,3-benzothiazol-2-yl)carbonyl]-4-guanidinobutylcarbamoyl]butyl](S)-2-[(S)-2-acetylamino-3-hydroxypropionylamino]-6-aminohexanamide], the EC50 was found to be 4270 nM.

Regarding `CCC(C)[C@H](NC(C)=O)C(=O)N[C@@H](CO)C(=O)N[C@@H](Cc1ccccc1)C(=O)N[C@@H](CCCNC(=N)N)C(=O)c1nc2ccccc2s1` (stereo partly drawn) [MM4009-2, N-[(S)-2-hydroxy-1-[N-(S)-1-[N-(S)-1-[(1,3-benzothiazol-2-yl)carbonyl]-4-guanidinobutylcarbamoyl]-2-phenylethylcarbamoyl]ethyl] (2S)-2-acetylamino-3-methylvaleramide], the concentration giving a half-maximal response (EC50) was 40.3 nM.

On to `CC(=O)N[C@@H](CC(C)C)C(=O)N[C@@H](CCC(N)=O)C(=O)N[C@@H](Cc1ccccc1)C(=O)N[C@@H](CCCNC(=N)N)C(=O)c1nc2ccccc2s1` [MM3131, N-[(S)-1-[N-(S)-1-[(1,3-benzothiazol-2-yl)carbonyl]-4-guanidinobutylcarbamoyl]-2-phenylethyl](S)-2-[(S)-2-acetylamino-4-methylvalerylamino]glutaramide], for which the EC50 stood at 10.7 nM.

With `CCC(C)[C@H](NC(C)=O)C(=O)N[C@H](C(=O)N[C@@H](Cc1ccccc1)C(=O)N[C@@H](CCCNC(=N)N)C(=O)c1nc2ccccc2s1)C(C)O` (stereo partly drawn) [MM4028-2, N-[(1S)-2-hydroxy-1-[N-(S)-1-[N-(S)-1-[(1,3-benzothiazol-2-yl)carbonyl]-4-guanidinobutylcarbamoyl]-2-phenylethylcarbamoyl]propyl](2S)-2-acetylamino-3-methylvaleramide], the EC50 was 103 nM.

Regarding `N=C(N)NCCC[C@H](NC(=O)[C@H](Cc1ccccc1)NC(=O)[C@H](N)Cc1c[nH]c2ccccc12)C(=O)c1nc2ccc(C(=O)O)cc2s1` [PK-1-45A1, 2-[(S)-2-[(S)-2-[(R)-2-amino-3-(3-indolyl)propionylamino]-3-phenylpropionylamino]-5-guanidinovaleryl]-1,3-benzothiazole-6-carboxylic acid], the EC50 turned out to be 105 nM.

On to `CC(=O)N[C@@H](Cc1c[nH]c2ccccc12)C(=O)N[C@@H](Cc1ccccc1)C(=O)N[C@@H](CCCNC(=N)N)C(=O)c1nc2ccccc2s1` [PK-1-102A1, N-[(S)-1-[(1,3-benzothiazol-2-yl)carbonyl]-4-guanidinobutyl](S)-2-[(S)-2-acetylamino-3-(3-indolyl)propionylamino]-3-phenylpropionamide], for which the half-maximal effective concentration (EC50) is 1380 nM.
